Experimental data from patent US9179668B2, “Use of glycerol ethers as activators of the biological effects of a herbicide, fungicide or insecticide substance” (FONDS DE DEVELOPPEMENT DES FILIERES DES OLEAGINEUX ET …, priority 2009, dated 2015).

How the values were obtained:
herbaceous plants = experiment: Spraying of herbicide solutions on 50×50 cm plots of land with herbaceous plants; deterioration of the vegetation observed; format: in vivo
Method: The following tests were carried out on plots of land of 50×50 cm on which herbaceous plants occur. Each of the solutions tested is sprayed over a plot which is assigned to it.
The time necessary for the complete destruction of the vegetation was compared, on similar plots planted with herbaceous plants, with a herbicide alone, on the one hand, and the same herbicide to which has been added a glycerol ether: 3-methyloxypropane-1,2-diol, on the other hand.
A solution comprising 6 g/l of glyphosate (in the acid form) was sprayed over plot 1 in a proportion of 36 grams to the m^2.
A solution comprising […] and 0.9 g/l of 3-methyl-oxypropane-1,2-diol was sprayed over plot 2 in a proportion of 36 grams to the m^2.
The following sprayings were carried out on 4 plots covered with herbaceous plants: • Plot 1: glyphosate at 6 g/l (36 g of the solution to the m^2) • Plot 2: glyphosate at 4.5 g/l (36 g of the solution to the m^2) • Plot 3: a solution of glyphosate at 1.5 g/l 3-pentyloxypropane-1,2-diol at 0.9 g/l, in a proportion of 36 g of the solution to the m^2. • Plot 4: a solution of glyphosate at […] 3-pentyloxypropane-1,2-diol at 0.9 g/l, in a proportion of 36 g of the solution to the m^2.

Candida albicans = Candida albicans on agar in a Petri dish with impregnated blotting paper disks; inhibition regions observed; format: cell-based
Text: In the following examples, the Candida albicans test strain used is sold under the reference ATCC 10231, Collection Institut Pasteur.
A Candida albicans strain was inoculated on agar in a Petri dish. Disks of blotting paper impregnated with the following solutions were subsequently deposited at its surface:
• disk 1 is impregnated with a solution comprising […] • disk 2 is impregnated with a solution comprising 0.5 g/l of mancozeb • disk 3 is impregnated with a solution comprising 0.2 g/l of mancozeb • disk 4 is impregnated with a solution comprising 0.2 g/l of mancozeb and 0.1 g/l of 3-butyloxypropane-1,2-diol.

Lucilia caesar = experiment: Spraying of insecticide solution on 30 flies in a cage; degree of mortality; format: in vivo; details: 1.8 g of solution; for degree of mortality: diflubenzuron 39.0 mg/l + glycerol ether 47.0 mg/l (cage 2)
Method: 30 flies of the species Lucilia caesar were introduced into each of the cages made with a cubic frame from lengths of wood and mosquito screens. One of the faces was pierced with a hole through which a sprayer for the test solution is introduced: • in cage 1, 1.8 g of a solution comprising 39.0 mg/l of diflubenzuron were sprayed • in cage 2, 1.8 g of a solution comprising 39.0 mg/l of diflubenzuron and 47.0 mg/l of 3-isopropyloxypropane-1,2-diol were sprayed.

Sitobion avenae = experiment: Spraying of insecticide solution on 25 aphids in a Petri dish; degree of mortality; format: in vivo; details: read-out: degree of mortality
Method: The aphids of the species Sitobion avenae used in the following examples were supplied by the Université de Picardie d'Amiens [University of Picardy of Amiens], laboratoire de biologie des plantes et contrôle des insectes ravageurs [Plant Biology and Insect Pest Control Laboratory], EA3900, 33, rue Saint Leu, Amiens 80000.
25 aphids of the species Sitobion avenae were introduced into a Petri dish into which the test solution was sprayed: • in dish 1, 1.8 g of a solution comprising 39.0 mg/l of diflubenzuron were sprayed; • in dish 2, 1.8 g of a solution comprising 39.0 mg/l of diflubezuron and 47.0 mg/l of 3-isopropyloxypropane-1,2-diol were sprayed.

[1] = glyphosate 6 g/l + glycerol ether 0.9 g/l, 36 g of solution per m^2 (plot 2)
[2] = glyphosate 1.5 g/l + glycerol ether 0.9 g/l, 36 g of solution per m^2
[3] = glyphosate 3 g/l + glycerol ether 0.9 g/l, 36 g of solution per m^2
[4] = glyphosate 6 g/l alone, 36 g of solution per m^2 (plot 1)

| Molecule | time after which deterioration began (herbaceous plants; [1]) [days] | time after which deterioration was complete (herbaceous plants; [1]) [days] | state of plot after 30 days (herbaceous plants; [2]) | state of plot after 30 days (herbaceous plants; [3]) | also measured |
| --- | --- | --- | --- | --- | --- |
| CCOCC(O)COCC [1,3-diethyloxypropan-2-ol] | 4 | 13 |  |  |  |
| COCC(O)COC [1,3-dimethyloxypropan-2-ol] | 4 | 15 |  |  |  |
| CCCCC(CC)COCC(O)CO (centres unmarked) [3-(2-ethylhexyloxy)propane-1,2-diol] | 3 | 11 | unaffected | completely deteriorated | inhibition region of growth around the disk (Candida albicans; mancozeb 0.2 g/l + glycerol ether 0.05 g/l (disk 4)): circular regions of inhibition of the growth; degree of mortality (Lucilia caesar): 56% |
| CCCCOCC(O)CO (centres unmarked) [3-butyloxypropane-1,2-diol] | 3 | 10 | unaffected | completely deteriorated | inhibition region of growth around the disk (Candida albicans; mancozeb 0.2 g/l + glycerol ether 0.1 g/l (disk 4)): circular regions of inhibition of the growth |
| CCCCCCCCCCOCC(O)CO (centres unmarked) [3-decyloxypropane-1,2-diol] | 4 | 11 |  |  |  |
| CCOCC(O)CO (centres unmarked) [3-ethyloxypropane-1,2-diol] | 3 | 11 |  |  |  |
| CCCCCCOCC(O)CO (centres unmarked) [3-hexyloxypropane-1,2-diol] | 3 | 10 | unaffected | completely deteriorated |  |
| CC(C)CCCCCCOCC(O)CO (centres unmarked) [3-isononyloxypropane-1,2-diol] |  |  | unaffected | completely deteriorated |  |
| CC(C)OCC(O)CO (centres unmarked) [3-isopropyloxypropane-1,2-diol] | 3 | 12 | unaffected | completely deteriorated | degree of mortality (Lucilia caesar): 64% |
| COCC(O)CO (centres unmarked) [3-methyloxypropane-1,2-diol] | 4 | 13 |  |  |  |
| CCCCCOCC(O)CO (centres unmarked) [3-pentyloxypropane-1,2-diol] | 3 | 10 | completely deteriorated |  | state of plot after 30 days (herbaceous plants; glyphosate 0.75 + glycerol ether 0.9 g/l, 36 g of solution per m^2): unaffected; inhibition region of growth around the disk (Candida albicans; mancozeb 0.2 g/l + glycerol ether 0.25 g/l (disk 4)): circular regions of inhibition of the growth |
| O=C(NC(=O)c1c(F)cccc1F)Nc1ccc(Cl)cc1 [diflubenzuron, reference compound] |  |  |  |  | mortality at 39 µg/mL (Sitobion avenae): 21%; mortality at 39 µg/mL (Lucilia caesar; Lucilia caesar, diflubenzuron 39.0 mg/l alone (cage 1)): 29% |
| O=C(O)CNCP(=O)(O)O [glyphosate, reference compound] |  |  |  |  | state of plot after 30 days (herbaceous plants; glyphosate 4.5 g/l alone, 36 g of solution per m^2 (plot 2)): unaffected; state of plot after 30 days (herbaceous plants; [4]): completely deteriorated; time after which deterioration began (herbaceous plants; [4]): 8 days; time after which deterioration was complete (herbaceous plants; [4]): 18 days |
| Cc1nc(N(C)C)nc(OC(=O)N(C)C)c1C [pirimicarb] |  |  |  |  | mortality at 78.1 µg/mL (Sitobion avenae): 16% |
| mancozeb [reference compound] |  |  |  |  | inhibition region of growth around the disk (Candida albicans; mancozeb 0.2 g/l alone (disk 3)): absence was observed of an inhibition region; inhibition region of growth around the disk (Candida albicans; mancozeb 0.5 g/l alone (disk 2)): absence was observed of an inhibition region; inhibition region of growth around the disk (Candida albicans; mancozeb 0.8 g/l alone (disk 1)): circular regions of inhibition of the growth |
